Literature values, collected in US6218375A, “Complex of ras-farnesyltransferase inhibitor and sulfobutylether-7-β-cyclodextrin or 2-hydroxypropyl-β-cyclodextrin and method” (priority 2000, dated 2001).

Key:
[1] = by cyclodextrins
[2] = by β-cyclodextrin
[3] = complexes with cyclodextrin derivatives, sublingual or buccal route

Compound	water-solubility [1]	stabilization [2]	elimination [3]	transfer into the systemic circulation [3]
CCN(CC)CCOC(=O)C(c1ccccc1)c1ccccc1 [adipherine]	increase water-solubility			
C=CCS[S+]([O-])CC=C (centres unmarked) [allicin]		increases stabilization		
CC(C)C12C=CC(C)(CC1)OO2 (centres unmarked) [ascaridole]		increases stabilization		
CC(=O)Oc1ccccc1C(=O)O [aspirin]	increase water-solubility			
CCOC(=O)c1ccc(N)cc1 [benzocaine]	increase water-solubility	increases stabilization		
C[C@]12CC[C@@H]3c4ccc(O)cc4CC[C@H]3[C@@H]1CC[C@@H]2O [estradiol]			only gradual elimination	effective transfer of these hormones into the systemic circulation
COc1ccc2c(c1)c(CC(=O)O)c(C)n2C(=O)c1ccc(Cl)cc1 [indomethacin]		increases stabilization		
CCCCC/C=C\C/C=C\CCCCCCCC(=O)O [linoleic acid]		increases stabilization		
O=[N+]([O-])OCC(CO[N+](=O)[O-])O[N+](=O)[O-] [nitroglycerin]		increases stabilization		
CCN(CC)CCOC(=O)c1ccc(N)cc1 [procaine]	increase water-solubility	increases stabilization		
CC(=O)[C@H]1CC[C@H]2[C@@H]3CCC4=CC(=O)CC[C@]4(C)[C@H]3CC[C@]12C [progesterone]			only gradual elimination	effective transfer of these hormones into the systemic circulation
O=C(O)c1ccccc1O [salicyclic acid]		increases stabilization		
C[C@]12CC[C@H]3[C@@H](CCC4=CC(=O)CC[C@@]43C)[C@@H]1CC[C@@H]2O [testosterone]	increase water-solubility		only gradual elimination	effective transfer of these hormones into the systemic circulation
C=C1CC[C@H](O)C/C1=C/C=C1\CCC[C@]2(C)[C@@H]([C@H](C)CCCC(C)C)CC[C@@H]12 [vitamin D3]	increase water-solubility			
